In this test the test system is mice. The experiment in a line: Dispel phlegm test of Naringenin, Phenol Red excretion in trachea (Example 31). Format: in vivo. To be noted: for Dispel phlegm ratio: group given drug / blank control group x 100%; for Excretion quantity of Phenol Red / Rectified excretion quantity of Phenol Red: mice, oral, X±S; for Rectified excretion quantity of Phenol Red: excretion quantity / weight of animal. An excerpt:
• 1. Animal: 80 healthy female mice weighing 18.5-22.0g was grouped into 8 groups random after labeled, which was selected from 90 female mice weighing 18.0-22.1g. Every group was 10 mice. Eight groups were set including negative control group, positive control group, high dose group of Naringenin, middle dose group of Naringenin, low dose group of Naringenin, high dose group of sodium salt of Naringenin, middle dose group of sodium salt of Naringenin, low dose group of sodium salt of Naringenin. […] Sample source and preparation • 1) Blank control group: physiological saline, 0.9% NaCl; • 2) Positive control group: 0.2g Tankejing was dissolve into 10 ml 0.9% NaCl and the sample concentration was 20 mg/ml to obtain the solution for positive control. • 3) low dose group of Naringenin: 0.5 mg/ml solution of Naringenin was prepared by weighting out the appropriate amount of 5 mg Naringenin and dissolving it by ultrasonication in 10 ml physiological saline. • 4) middle dose group of Naringenin: 1.5 mg/ml solution of Naringenin was prepared by weighting out the appropriate amount of 15 mg Naringenin and dissolving it by ultrasonication in 10 ml physiological saline. • 5) high dose group of Naringenin: 4.5 mg/ml solution of Naringenin was prepared by weighting out the appropriate amount of 45 mg Naringenin and dissolving it by ultrasonication in 10 ml physiological saline. • 6) low dose group of sodium salt of Naringenin: 0.5 mg/ml solution of sodium salt of Naringenin was prepared by weighting out the appropriate amount of 5 mg sodium salt of Naringenin and dissolving it by ultrasonication in 10 ml physiological saline. • 7) middle dose group of sodium salt of Naringenin: 1.5 mg/ml solution of sodium salt of Naringenin was prepared by weighting out the appropriate amount of 15 mg sodium salt of Naringenin and dissolving it by ultrasonication in 10 ml physiological saline. • 8) high dose group of sodium salt of Naringenin: 4.5 mg/ml solution of sodium salt of Naringenin was prepared by weighting out the appropriate amount of 45 mg sodium salt of Naringenin and dissolving it by ultrasonication in 10 ml physiological saline. • 3. Experimental Method: • 1) preparations of Phenol Red calibration standard: 12.5 ng/ml solution of Phenol Red was prepared by weighting out the appropriate amount of Phenol Red and dissolving it by ultrasonication in 5% NaHCO3. The series solution including 6.25ng/ml, 3.125ng/ml, 1.5625 ng/ml, 0.7813 ng/ml, 0.3906 ng/ml, 0.1953 ng/ml, 0.0977 ng/ml, 0.0488 ng/ml was prepared by diluting, which was detected by ultraviolet spectrometer. The calibration curve was calculated by concentration of Phenol Red as y-axis and OD value as x-axis. And the excretion account of Phenol Red in mice was quantitated by calibration curve. • 2) Animals were fasted for 12 hr before dosing. • 3) Animals were oral administered with labeled number, each animal was administered with 3 min and each group was accomplished in 30 min. • 4) After administered 30 min, every animal was injected 2 ml 5% Phenol Red solution via celiac injection. The time of every animal was 3 min. • 5) Every animal was executed with 3 min interval after celiac injection 30 min, and animal trachea was peeled off with forceps after neck skin sniped, which was riveted on operating table. • 6) plasma and Phenol Red adhered to trachea ektexine was sweeped by 0.9% NaCl solution with an injector. And filter paper was used to blot up the solution. • 7) Scissors cut down the animal trachea including thyroid cartilage and trachea back-end. • 8) The trachea was set in test tube with 1.5 ml 5% NaHCO3. • 9) The experiment of every animal was completed in 3 min. […]

Structures can show the parent of a compound that is named as a salt.

Here are results for two compounds from patent publication EP1591123A1, “USES OF NARINGENIN, NARINGIN AND SALTS THEREOF AS EXPECTORANTS IN THE TREATMENT OF COUGH, AND COMPOSITIONS THEREOF” (Su, Wei-wei, priority 2003, dated 2004).

As for `O=C1CC(c2ccc(O)cc2)Oc2cc(O)cc(O)c21` (centres unmarked) [Naringenin, 4', 5, 7 -trihydroxyflavanone], the Dispel phlegm ratio runs as follows: (5 mg/kg) 146.13%; (15 mg/kg) 159.97%; (45 mg/kg) 219.85%. The dispel phlegm effect entry (high dose group compared to positive control group of Tankejing) was “statistical better than Tankejing”. Also, the “Excretion quantity of Phenol Red” value reads like this: (5 mg/kg) 1.2757 ± 0.4020 ng; (15 mg/kg) 1.3523 ± 0.9303 ng; (45 mg/kg) 1.9257 ± 0.6713 ng. Moreover, the “Rectified excretion quantity of Phenol Red” value (from here on “Rectified excretion quantity”) is, setting by setting: (5 mg/kg) 68.2832 ± 23.6102 ng/kg; (15 mg/kg) 74.7504 ± 57.2020 ng/kg; (45 mg/kg) 102.7325 ± 41.0313 ng/kg. Moreover, under “three doses (low, middle, high), versus negative control group”, the “exudates increase of mice trachea” value is “statistical significance stimulate the exudates increase of mice trachea”.

`O=C1C[C@@H](c2ccc(O)cc2)Oc2cc(O)cc(O)c21` [sodium salt of Naringenin]: under “5 mg/kg”, the Dispel phlegm ratio is 148.72%, the “Excretion quantity of Phenol Red” value was found to be 1.3029 ± 0.3069 ng and the “Rectified excretion quantity” value was found to be 69.4942 ± 16.3724 ng/kg. For the same compound, where the note is “15 mg/kg”, the Dispel phlegm ratio is recorded as 162.38%, the “Excretion quantity of Phenol Red” value is 1.4225 ± 0.7361 ng and the “Rectified excretion quantity” value is 75.8773 ± 39.2651 ng/kg. Where the note is “45 mg/kg”, the Dispel phlegm ratio amounted to 224.93%, the “Excretion quantity of Phenol Red” value was 1.9705 ± 0.6898 ng and the “Rectified excretion quantity” value is 105.1057 ± 36.7945 ng/kg.
